Test system: human endothelial cells
Assay: Fenofibrate time-course microarray in human endothelial cells, GO Term Finder clusters of selected genes
Conditions: 25 μM fenofibrate, 18 hours microarray

`CC(C)OC(=O)C(C)(C)Oc1ccc(C(=O)c2ccc(Cl)cc2)cc1` [fenofibrate] was tested, and the “# genes in GO annotation: cellular lipid metabolism (GO:0044255)” value (overexpressed genes) was 21, the “# genes in GO annotation: cholesterol biosynthesis (GO:0006695)” value (overexpressed genes) was 5 and the “# genes in GO annotation: cholesterol metabolism (GO:0008203)” value (overexpressed genes) was 7. The “# genes in GO annotation: lipid metabolism (GO:0006629)” value (overexpressed genes) was 25, the “# genes in GO annotation: steroid biosynthesis (GO:0006694)” value (overexpressed genes) was 7 and the “# genes in GO annotation: steroid metabolism (GO:0008202)” value (overexpressed genes) was 10. For the same molecule, the “# genes in GO annotation: sterol biosynthesis (GO:0016126)” value (overexpressed genes) was 6, the “# genes in GO annotation: sterol metabolism (GO:0016125)” value (overexpressed genes) was 8 and the “# genes in GO annotation: M phase (GO:0000279)” value (suppressed genes) was 17. For the same molecule, the “# genes in GO annotation: M phase of mitotic cell cycle (GO:0000087)” value (suppressed genes) was 15, the “# genes in GO annotation: RNA splicing, via transesterification reactions (GO:0000375)” value (suppressed genes) was 9 and the “# genes in GO annotation: RNA splicing, via transesterification reactions with bulged adenosine as nucleophile (GO:0000377)” value (suppressed genes) was 9. The “# genes in GO annotation: cell cycle (GO:0007049)” value (suppressed genes) was 35, the “# genes in GO annotation: mRNA metabolism (GO:0016071)” value (suppressed genes) was 13 and the “# genes in GO annotation: mitosis (GO:0007067)” value (suppressed genes) was 15. For the same molecule, the “# genes in GO annotation: mitotic cell cycle (GO:0000278)” value (suppressed genes) was 19, the “# genes in GO annotation: nuclear mRNA splicing, via spliceosome (GO:0000398)” value (suppressed genes) was 9 and the “# genes in GO annotation: regulation of cell cycle (GO:0000074)” value (suppressed genes) was 22.

From patent US20080220977A1, “Computational strategy for discovering druggable gene networks from genome-wide RNA expression profiles” (GNI Ltd., priority 2005, published 2008)
